In brackets after ≈: the same amount, converted by molar mass. Activity calls are given as the source filed them. The calls are words filed in the database; no cut-off is given here.
Tests used:
[1] = tested on: Mycobacterium tuberculosis; assay: Antitubercular activity against Mycobacterium tuberculosis H37Rv; format: functional
[2] = tested on: Mycobacterium tuberculosis; assay: Bactericidal activity against replicating Mycobacterium tuberculosis assessed as log reduction CFU at 1 to 10 times MIC after 21 days; format: functional
[3] = Selectivity index, ratio of TC50 for African green monkey Vero cells to MIC for Mycobacterium tuberculosis H37Rv ATCC 25618
[4] = tested on: Mycobacterium tuberculosis; assay: Ratio of MBC to MIC for replicating Mycobacterium tuberculosis at 1 to 10 times MIC after 21 days; format: functional
[5] = tested on: Mycobacterium tuberculosis; assay: Antitubercular activity against Mycobacterium tuberculosis H37Rv ATCC 25618 under aerobic condition after 5 days; format: functional; conditions: H37Rv ATCC 25618, 120 h
[6] = tested on: Mycobacterium tuberculosis; assay: Bactericidal activity against nonreplicating Mycobacterium tuberculosis assessed as log reduction CFU at MIC after 21 days; format: functional
[7] = Cytotoxicity against African green monkey Vero cells after 2 days by luminescent assay; format: cell-based; conditions: chlorocebus sabaeus, read-out: TC50
[8] = tested on: Mycobacterium tuberculosis; assay: Bactericidal activity against nonreplicating Mycobacterium tuberculosis assessed as log reduction CFU at 1 to 10 times MIC after 21 days; format: functional
[9] = Thermodynamic equilibrium solubility of the compound using 10 mM DMSO at pH 2; format: physicochemical; conditions: buffer, read-out: Therm_solubility
[10] = tested on: Escherichia coli; assay: Antimicrobial activity against Escherichia coli after 1 day by serial proportion method; format: functional; conditions: 24 h
[11] = tested on: Mycolicibacterium smegmatis; assay: Antimicrobial activity against Mycobacterium smegmatis MC2 155 after 5 to 7 days by serial proportion method; format: functional; conditions: str. MC2 155
[12] = Metabolic stability of the compound in human liver microsomes assessed as compound turnover at 2 uM after 30 mins by LC-MS analysis; format: ADME; conditions: read-out: Drug metabolism
[13] = tested on: Mycobacterium tuberculosis; assay: Antitubercular activity against Mycobacterium tuberculosis after 21 to 28 days by serial proportion method; format: functional
[14] = Fraction unbound in mouse plasma after 4.5 hrs by LC-MS/MS analysis; format: ADME, cell-free
[15] = tested on: Mycobacterium tuberculosis; assay: Bactericidal activity against replicating Mycobacterium tuberculosis at 1 to 10 times MIC after 21 days; format: functional, organism-based
[16] = tested on: MDCK; assay: Passive permeability of the compound from apical to basolateral direction in MDCK cells at 10 uM in presence of P-gp inhibitor; format: ADME, cell-based, Canis lupus familiaris; conditions: dog
[17] = tested on: Staphylococcus aureus; assay: Antimicrobial activity against Staphylococcus aureus after 2 days by serial proportion method; format: functional; conditions: 48 h
[18] = Thermodynamic equilibrium solubility of the compound using 10 mM DMSO at pH 6; format: physicochemical; conditions: buffer, read-out: Therm_solubility
[19] = Metabolic stability of the compound in rat liver microsomes assessed as compound turnover at 2 uM after 30 mins by LC-MS analysis; format: ADME; conditions: read-out: Drug metabolism
[20] = Thermodynamic equilibrium solubility of the compound using 10 mM DMSO at pH 7.4; format: physicochemical; conditions: buffer, read-out: Therm_solubility
[21] = Metabolic stability of the compound in mouse liver microsomes assessed as compound turnover at 2 uM after 30 mins by LC-MS analysis; format: ADME; conditions: read-out: Drug metabolism

CCc1nc2ccccc2n1CCCOc1ccccc1
MIC [1]: 3.4 µM (≈ 0.953 µg/mL)
FC [2]: 2
Ratio [3]: >9.6
Ratio [4]: >4
MIC [5]: 5.2 µM (≈ 1.46 µg/mL)
FC [6]: >3
CC50 at 48 h [7]: > 50 µM
FC [8]: >3

CCc1nc2ccccc2n1CCCCSc1nnc(-c2ccc(Cl)cc2)o1
solubility thermodynamic [9]: 830 µg/mL (≈ 2010 µM)
MIC99 [10]: > 100 µM
MIC99 [11]: > 100 µM
metabolised at 0.5 h, 2 µM [12]: 99.9%
MIC99 [13]: 2.5 µM (≈ 1.03 µg/mL)
Ratio [3]: 220
fraction unbound at 4.5 h [14]: 0.006
Activity [15]: inactive
permeability [16]: 4.4%
MIC99 [17]: > 100 µM
solubility thermodynamic [18]: < 1 µg/mL
MIC [5]: 0.1 µM (≈ 0.0413 µg/mL)
metabolised at 0.5 h, 2 µM [19]: 99.9%
solubility thermodynamic [20]: < 1 µg/mL
FC [6]: >3
CC50 at 48 h [7]: 22 µM
FC [8]: >3
metabolised at 0.5 h, 2 µM [21]: 99.8%

From ChEMBL document CHEMBL3616434, “Identification of Phenoxyalkylbenzimidazoles with Antitubercular Activity” (J Med Chem, 2015)
